Data published in the supplement of paper PMC9663587.

Assays:
[1] = compound: CCCCOc1c(C(=O)c2c(F)cc(C)cc2F)c[nH]c2nncc1-2
[2] = compound: CNc1nc(-c2ccc3c(N)n[nH]c3c2)cc(N2C[C@@H](C(=O)NC3CCCCC3)CC[C@H]2C)n1
[3] = compound: CCN1CCN(Cc2ccc(Nc3ncc(F)c(-c4cc(F)c5nc(C)n(C(C)C)c5c4)n3)nc2)CC1
[4] = compound: CC(=O)c1c(C)c2cnc(Nc3ccc(N4CCNCC4)cn3)nc2n(C2CCCC2)c1=O
[5] = compound: CCNC(=O)c1noc(-c2cc(C(C)C)c(O)cc2O)c1-c1ccc(CN2CCOCC2)cc1 [Luminespib/NVP-AUY922]
[6] = compound: CC(=O)Nc1cccc(-n2c(=O)n(C3CC3)c(=O)c3c(Nc4ccc(I)cc4F)n(C)c(=O)c(C)c32)c1
[7] = compound: O=C(CCCCCCC(=O)Nc1ccccc1)NO [Vorinostat]
[8] = compound: CN(C)C/C=C/C(=O)Nc1ccc(C(=O)N2CCC[C@@H](Nc3ncc(Cl)c(-c4c[nH]c5ccccc45)n3)C2)cc1 [THZ531]
[9] = compound: C1=CC(=CC(=C1)N2C(=O)C=CC3=CN=C4C=CC(=CC4=C32)C5=CN=C(C=C5)N)C(F)(F)F [Torin2]
[10] = compound: Cc1nc(-c2cn3c(n2)-c2ccc(-c4cnn(C(C)(C)C(N)=O)c4)cc2OCC3)n(C(C)C)n1 [Taselisib/GDC0032]
[11] = compound: CC[C@@H]1C(=O)N(C)c2cnc(Nc3ccc(C(=O)N[C@H]4CC[C@H](N5CCN(CC6CC6)CC5)CC4)cc3OC)nc2N1C(C)C [Volasertib/BI6727]
[12] = compound: NC(=O)Nc1cc(-c2cccc(F)c2)sc1C(=O)N[C@H]1CCCNC1 [AZD7762]
[13] = compound: CN1CCN(CCOc2cc(OC3CCOCC3)c3c(Nc4c(Cl)ccc5c4OCO5)ncnc3c2)CC1 [Saracatinib/AZD0530]
[14] = compound: C[C@@H]1COCCN1c1cc(C2([S@](C)(=N)=O)CC2)nc(-c2cc[nH]c3nccc2-3)n1 [AZD6738]
[15] = compound: CC(C)n1nc(-c2ccc3oc(N)nc3c2)c2c(N)ncnc21 [INK128/MLN0128]
[16] = compound: CN(C)C/C=C/C(=O)Nc1ccc(O[C@@H]2CCC[C@@H](Nc3ncc(Cl)c(-c4c[nH]c5ccccc45)n3)C2)cc1 [BSJ-01-175]
[17] = compound: Nc1cc(C(F)(F)F)c(-c2cc(N3CCOCC3)nc(N3CCOCC3)n2)cn1 [Buparlisib/NVP-BKM120]
[18] = compound: C=CCn1c(=O)c2cnc(Nc3ccc(N4CCN(C)CC4)cc3)nc2n1-c1cccc(C(C)(C)O)n1 [AZD1775]
[19] = compound: Cc1nc(NC(=O)N2CCC[C@H]2C(N)=O)sc1-c1ccnc(C(C)(C)C(F)(F)F)c1 [Alpelisib/BYL719]
[20] = compound: O=C(c1cc(Cc2n[nH]c(=O)c3ccccc23)ccc1F)N1CCN(C(=O)C2CC2)CC1 [Olaparib/AZD2281]
[21] = compound: CC1=CN2C(=O)C=C(N=C2C(=C1)C(C)NC3=CC=CC=C3)N4CCOCC4 [TGX221]
[22] = compound: O=C1NC(=O)[C@@H](c2cn3c4c(cccc24)CCC3)[C@@H]1c1c[nH]c2ccccc12 [Tivantinib/ARQ197]
[23] = compound: CC1(CCN(CC1)C2=CN=C(C(=N2)N)C3=C(C(=CC=C3)Cl)Cl)N [SHP099]
[24] = compound: COc1ccc2c(c1)[C@]1(C[C@H]1c1ccc3c(/C=C/c4ccc(CN5C[C@@H](C)O[C@@H](C)C5)cc4)n[nH]c3c1)C(=O)N2
[25] = compound: CNC(=O)c1cccc(-c2ccc3c(N4CCOC[C@@H]4C)nc(N4CCOC[C@@H]4C)nc3n2)c1 [AZD2014]
[26] = compound: CNCc1ccc(-c2[nH]c3cc(F)cc4c3c2CCNC4=O)cc1 [Rucaparib]
[27] = compound: CC(C)NC[C@@H](C(=O)N1CCN(c2ncnc3c2[C@H](C)C[C@H]3O)CC1)c1ccc(Cl)cc1 [Ipatasertib/GDC0068]
[28] = compound: CN1CCN(C(=O)c2ccc3cc(CCNc4ncnc5ccc(C#N)cc45)ccc3c2)CC1 [senexin b]
[29] = compound: Cc1nc(Nc2ncc(C(=O)Nc3c(C)cccc3Cl)s2)cc(N2CCN(CCO)CC2)n1 [Dasatinib]
[30] = compound: CN(C)C/C=C/C(=O)Nc1ccc(C(=O)Nc2cccc(Nc3ncc(Cl)c(-c4c[nH]c5ccccc45)n3)c2)cc1 [THZ1]
[31] = compound: COc1cc2nccc(Oc3ccc(NC(=O)C4(C(=O)Nc5ccc(F)cc5)CC4)cc3)c2cc1OC [Cabozantinib]
[32] = compound: COc1cc2c(Oc3ccc4[nH]c(C)cc4c3F)ncnc2cc1OCCCN1CCCC1 [Cediranib/AZD2171]
[33] = compound: CN(C)CC[C@H](CSc1ccccc1)Nc1ccc(S(=O)(=O)NC(=O)c2ccc(N3CCN(Cc4ccccc4-c4ccc(Cl)cc4)CC3)cc2)cc1[N+](=O)[O-] [ABT-737]
[34] = compound: CN(C)C/C=C/C(=O)NC1=CC=C(C=C1)C(=O)NC2=CC=CC(=C2)NC3=NC=NC(=C3)C4=CNC5=CC=CC=C54 [THZ-P1-2]
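Further: breast cancer and non-malignant breast epithelial cell lines, Deep Dye Drop or Dye Drop imaging, nine half-log doses, GR normalized to time-zero plates and DMSO-only controls.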

Row | Cell Line | GR50, 72 h [1] [µM] | GR50, 72 h [2] [µM] | GR50, 72 h [3] [µM] | GR50, 72 h [4] [µM] | GR50, 72 h [5] [µM] | GR50, 72 h [6] [µM] | GR50, 72 h [7] [µM] | GR50, 72 h [8] [µM] | GR50, 72 h [9] [µM] | GR50, 72 h [10] [µM] | GR50, 72 h [11] [µM] | GR50, 72 h [12] [µM] | GR50, 72 h [13] [µM] | GR50, 72 h [14] [µM] | GR50, 72 h [15] [µM] | GR50, 72 h [16] [µM] | GR50, 72 h [17] [µM] | GR50, 72 h [18] [µM] | GR50, 72 h [19] [µM] | GR50, 72 h [20] [µM] | GR50, 72 h [21] [µM] | GR50, 72 h [22] [µM] | GR50, 72 h [23] [µM] | GR50, 72 h [24] [µM] | GR50, 72 h [25] [µM] | GR50, 72 h [26] [µM] | GR50, 72 h [27] [µM] | GR50, 72 h [28] [µM] | GR50, 72 h [29] [µM] | GR50, 72 h [30] [µM] | GR50, 72 h [31] [µM] | GR50, 72 h [32] [µM] | GR50, 72 h [33] [µM] | GR50, 72 h [34] [µM]
1 | UACC893 | 0.0897 | 4.83 | 0.00967 | 0.0209 | 0.00468 | 0.0212 | 3.72 | 0.0414 | 0.00854 | 0.00346 | 0.00357 | 0.299 | 4.54 | 9.33 | 0.00694 | 0.0165 | 0.271 | 0.236 | 0.419 | > 10 | > 10 | 0.297 | > 10 | 0.0124 | < 0.001 | > 10 | 0.223 | > 10 | > 10 | 0.0175 | > 10 | 6.59 | 9.97 | 
2 | MDAMB157 |  |  | 1.8 | > 3.16 | 0.00418 | 0.111 | 1.1 |  | 0.0344 | 1.36 | 0.00692 | 0.0154 | 5.23 |  | 0.0318 |  | 1.28 |  | 9.77 | 5.39 | > 10 | 0.777 |  |  |  |  | > 10 |  | 0.0605 |  | 2.78 | 0.825 | 6.41 | 
3 | MDAMB453 | 0.811 | 2.12 | 0.00577 | 0.0428 | 0.0033 | 0.0339 | 0.944 | 0.0236 | 0.0086 | 0.00346 | 0.00726 | 0.0116 | 8.37 | 4.74 | 0.00996 | 0.00336 | 0.694 | 0.112 | 0.538 | 1.67 | > 10 | 0.201 | > 10 | 0.00348 | 0.00364 | 6.58 | 0.542 | 3.93 | > 10 | 0.0116 | 9.71 | 2.79 | 5.97 | 
4 | SUM190PT | 0.0016 | 2.22 | 0.0206 | 0.0436 | 0.00558 | > 1 | 0.402 | 0.0528 | 0.00524 | 0.962 | 0.0086 | 0.0612 | > 10 | 4.09 | 0.0134 | 0.00573 | 1.04 | 0.0515 | > 10 | > 10 | > 10 | 0.0433 | > 10 | 0.00062 | 0.00932 | > 10 | > 10 |  | 0.212 | 0.00565 | 6.1 | > 10 | 0.362 | 0.303
5 | MDAMB330 | 0.762 | 0.279 | 0.00409 | 0.0198 | 0.00239 | 0.138 | 1.55 | 0.0247 | 0.00492 | 0.00814 | 0.0032 | 0.0449 | 1.2 | 8.42 | 0.00601 | 0.00635 | 0.511 | 0.0535 | 1.2 | 9.31 | > 10 | 0.661 |  | 0.00542 | < 0.001 | 8.69 | 0.38 |  | > 10 | 0.00836 | > 10 | 4.86 | 2.07 | 
6 | HCC1187 |  | > 10 |  | > 3.16 | 0.00363 | > 1 | 1.07 | 0.0529 | 0.00305 | 0.168 | 0.0078 | 0.0508 | 0.258 | 1.21 | 0.0661 | 0.00928 | 0.619 | 0.0228 | > 10 | 3.46 |  | 0.0418 | > 10 | 0.00763 |  | > 10 |  | > 10 | 0.0343 | 0.0149 |  |  |  | 
7 | SUM1315 | 0.00376 | 3.85 | 0.0493 | 0.0923 | 0.00486 | 0.0211 | 1.76 | 0.388 | 0.015 | 0.516 | 0.0095 | 0.0527 | 1.39 | 4.46 | 0.00659 | 0.419 | 0.402 | < 0.001 | 6.46 | 2.03 | > 10 | 0.37 | > 10 | 0.00184 | 0.0012 |  | > 10 | > 10 | 0.0191 | 0.251 | 4.52 | 1.47 | 5.96 | 7.11
